In ChEMBL document CHEMBL1201862, “PubChem BioAssay data set” (2004):
Values belong to the compound of their own block, whether it stands above or below them. Calls of active or inactive are those of the source.

What was measured:
[1] = inhibitors of intracellular T. cruzi replication, confirmation, NIH3T3 host cells, beta-gal luminescence (AID 2044); assay type: functional, cell-based;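 also: intracellular parasites grown in NIH/3T3 mouse fibroblasts as host cells; luminescent beta-galactosidase reporter signal from transgenic T. cruzi replicating inside host cells; inhibitors lower the luminescence signal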
[2] = cytotoxicity toward NIH3T3 fibroblasts, dose response, counter-screen, cell-based, ATP luminescence, mouse fibroblasts (AID 2010); assay type: functional; settings: NIH3T3;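 also: cells exposed to compound for about 90 hours before reading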
[3] = target: Glucose-6-phosphate 1-dehydrogenase (Homo sapiens, UniProt P11413); assay: human G6PD enzyme inhibitors, dose response, selectivity assay for P. falciparum G6PD inhibitor project, biochemical, fluorescence (AID 504792); assay type: functional
[4] = target: Beta-galactosidase (Escherichia coli, UniProt Q8VNN2); assay: beta-galactosidase enzyme inhibitors and activators, dose response, artefact control for CCR6 antagonist project, biochemical, E. coli enzyme, set 3 (AID 504712); assay type: functional
[5] = target: Genome polyprotein (dengue virus type 2, UniProt P29990); assay: Dengue-2 NS5 methyltransferase inhibitors, primary screen, biochemical, confirmation dose response (AID 588689); assay type: functional
[6] = target: T1, Polyadenylate-binding protein 1 (Homo sapiens, UniProt P11940); assay: PABP1 MLLE–PAM2 interaction inhibitors, dose response, miRNA deadenylation inhibitor project, biochemical, fluorescence polarization, Cy5-PAM2 peptide, secondary (AID 602260); assay type: functional; settings: read-out: IC50_Mean
[7] = target: T1, Polyadenylate-binding protein 1; assay: PABP1 MLLE–PAM2 binding inhibitor potency, dose response, biochemical, fluorescence polarization, FITC-PAM2 peptide (AID 602259); assay type: functional; settings: read-out: IC50_Mean
[8] = target: T2, Cytochrome P450 3A4 (Homo sapiens, UniProt P08684);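 also: CYP3A4 tested as one member of a cytochrome P450 panel screen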
[9] = target: Cytochrome P450 2D6 (Homo sapiens, UniProt P10635);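 also: CYP2D6 member of a cytochrome P450 panel assay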
[10] = target: Cytochrome P450 2C19 (Homo sapiens, UniProt P33261); assay: Cytochrome panel assay with activity outcomes. Panel member name: p450-cyp2c19 Compounds with AC50 equal or less than 10 uM are considered active; assay type: functional; settings: read-out: AC50
[11] = target: Cytochrome P450 2C9 (Homo sapiens, UniProt P11712)
[12] = target: T2, Cytochrome P450 3A4; remark: listed apart in the source
[13] = target: T3, Cytochrome P450 1A2 (Homo sapiens, UniProt P05177);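 also: PubChem cytochrome P450 panel assay, CYP1A2 panel member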
T3 sequence (P05177 whole entry): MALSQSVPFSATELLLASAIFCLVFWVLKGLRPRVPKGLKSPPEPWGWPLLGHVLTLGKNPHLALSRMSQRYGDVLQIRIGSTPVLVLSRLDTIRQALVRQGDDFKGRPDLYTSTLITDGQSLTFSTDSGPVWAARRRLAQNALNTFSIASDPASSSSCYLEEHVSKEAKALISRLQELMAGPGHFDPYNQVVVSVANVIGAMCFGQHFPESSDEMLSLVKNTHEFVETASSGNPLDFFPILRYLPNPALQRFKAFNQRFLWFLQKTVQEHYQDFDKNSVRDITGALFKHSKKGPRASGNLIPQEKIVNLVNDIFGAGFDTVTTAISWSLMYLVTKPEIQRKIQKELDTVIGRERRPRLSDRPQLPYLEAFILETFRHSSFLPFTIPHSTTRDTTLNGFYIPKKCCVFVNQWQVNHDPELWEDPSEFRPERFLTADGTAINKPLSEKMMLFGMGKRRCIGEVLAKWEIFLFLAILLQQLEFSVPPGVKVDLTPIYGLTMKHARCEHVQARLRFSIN

[14] = target: Voltage-gated inwardly rectifying potassium channel KCNH2 (Homo sapiens, UniProt Q12809); settings: Potency;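 also: confirmatory quantitative high-throughput screen measuring inhibition of hERG channel activity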
[15] = target: T4, Hexokinase-1 (Homo sapiens, UniProt P19367); assay: SAR analysis of small molecule inhibitors of hexokinase domain containing I (HKDC1) in the hexokinase 1 selectivity assay. [Related pubchem assays (depositor defined):AID493160, AID493190]; assay type: functional
T4 sequence (P19367 whole entry): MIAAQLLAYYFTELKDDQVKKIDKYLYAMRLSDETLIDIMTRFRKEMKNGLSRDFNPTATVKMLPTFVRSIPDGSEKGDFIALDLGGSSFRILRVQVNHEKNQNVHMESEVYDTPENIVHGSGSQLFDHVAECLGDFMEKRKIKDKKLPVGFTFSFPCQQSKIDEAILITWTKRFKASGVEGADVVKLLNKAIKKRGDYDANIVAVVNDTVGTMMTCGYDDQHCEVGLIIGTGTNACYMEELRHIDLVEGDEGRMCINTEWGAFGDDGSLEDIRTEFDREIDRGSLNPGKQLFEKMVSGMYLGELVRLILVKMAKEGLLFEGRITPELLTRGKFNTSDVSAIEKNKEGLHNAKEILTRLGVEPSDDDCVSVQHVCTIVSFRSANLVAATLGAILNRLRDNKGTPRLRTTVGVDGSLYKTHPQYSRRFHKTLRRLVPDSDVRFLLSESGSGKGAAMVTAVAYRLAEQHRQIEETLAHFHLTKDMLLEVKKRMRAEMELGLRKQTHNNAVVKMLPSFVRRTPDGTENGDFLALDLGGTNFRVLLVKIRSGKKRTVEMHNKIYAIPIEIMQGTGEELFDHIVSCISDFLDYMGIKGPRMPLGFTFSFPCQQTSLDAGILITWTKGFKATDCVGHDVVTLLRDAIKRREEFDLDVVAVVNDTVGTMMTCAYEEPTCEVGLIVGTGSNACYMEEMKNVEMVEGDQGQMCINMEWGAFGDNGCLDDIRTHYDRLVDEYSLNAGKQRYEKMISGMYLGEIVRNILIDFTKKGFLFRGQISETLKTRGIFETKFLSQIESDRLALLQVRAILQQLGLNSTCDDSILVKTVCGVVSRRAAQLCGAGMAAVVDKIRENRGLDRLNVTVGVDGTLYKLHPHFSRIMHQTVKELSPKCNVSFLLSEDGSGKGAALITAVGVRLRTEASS

[16] = target: T5, Hexokinase HKDC1 (Homo sapiens, UniProt Q2TB90); assay: SAR analysis of small molecule inhibitors of hexokinase domain containing I (HKDC1). [Related pubchem assays (depositor defined):AID493160, AID493190]; assay type: functional
T5 sequence (Q2TB90 whole entry): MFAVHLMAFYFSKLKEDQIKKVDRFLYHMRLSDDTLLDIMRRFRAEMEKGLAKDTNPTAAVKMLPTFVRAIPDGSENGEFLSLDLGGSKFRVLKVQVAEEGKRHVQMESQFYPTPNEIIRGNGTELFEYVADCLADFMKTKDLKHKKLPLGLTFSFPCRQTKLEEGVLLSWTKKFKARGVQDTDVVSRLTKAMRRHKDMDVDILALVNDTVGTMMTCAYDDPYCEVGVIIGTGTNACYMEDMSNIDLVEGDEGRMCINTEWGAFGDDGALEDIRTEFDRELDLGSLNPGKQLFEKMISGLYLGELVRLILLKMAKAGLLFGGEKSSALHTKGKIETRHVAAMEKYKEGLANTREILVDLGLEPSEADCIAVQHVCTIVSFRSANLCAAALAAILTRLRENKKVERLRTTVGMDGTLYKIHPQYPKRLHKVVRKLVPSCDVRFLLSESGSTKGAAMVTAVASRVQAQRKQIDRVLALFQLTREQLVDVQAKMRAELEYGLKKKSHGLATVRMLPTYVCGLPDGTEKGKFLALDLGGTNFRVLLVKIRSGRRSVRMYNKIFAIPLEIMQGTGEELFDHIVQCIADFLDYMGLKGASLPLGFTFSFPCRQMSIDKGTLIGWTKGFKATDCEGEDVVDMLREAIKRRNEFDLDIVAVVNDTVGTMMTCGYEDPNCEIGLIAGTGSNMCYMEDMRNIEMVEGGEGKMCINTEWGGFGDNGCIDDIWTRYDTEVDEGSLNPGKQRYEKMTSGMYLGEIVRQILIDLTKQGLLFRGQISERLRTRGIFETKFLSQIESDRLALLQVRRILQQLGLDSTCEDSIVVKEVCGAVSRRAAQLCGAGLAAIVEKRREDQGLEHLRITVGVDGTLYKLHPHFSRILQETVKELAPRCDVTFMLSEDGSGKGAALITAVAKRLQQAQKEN

[17] = target: Intestinal-type alkaline phosphatase (Mus musculus, UniProt P24822); assay: PubChem AID 488875; assay type: functional
[18] = target: T6, Intestinal-type alkaline phosphatase (Homo sapiens, UniProt P09923); assay: human intestinal alkaline phosphatase activators, dose response, biochemical, luminescence, uHTS hits (AID 463120); assay type: functional
[19] = target: T6, Intestinal-type alkaline phosphatase; assay: human IAP activators, dose response, biochemical, luminescent, uHTS hits, set 2 (AID 488817); assay type: functional;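 also: potency of activators that raise enzyme activity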
[20] = target: T7, Alkaline phosphatase, tissue-nonspecific isozyme (Homo sapiens, UniProt P05186); assay: TNAP enzyme activators, dose response, selectivity assay for human IAP activator project, biochemical, TNAP isozyme, human IAP uHTS hits (AID 488886); assay type: functional;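 also: potency of compounds raising TNAP activity as a selectivity check on IAP activators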
T7 sequence (P05186 whole entry): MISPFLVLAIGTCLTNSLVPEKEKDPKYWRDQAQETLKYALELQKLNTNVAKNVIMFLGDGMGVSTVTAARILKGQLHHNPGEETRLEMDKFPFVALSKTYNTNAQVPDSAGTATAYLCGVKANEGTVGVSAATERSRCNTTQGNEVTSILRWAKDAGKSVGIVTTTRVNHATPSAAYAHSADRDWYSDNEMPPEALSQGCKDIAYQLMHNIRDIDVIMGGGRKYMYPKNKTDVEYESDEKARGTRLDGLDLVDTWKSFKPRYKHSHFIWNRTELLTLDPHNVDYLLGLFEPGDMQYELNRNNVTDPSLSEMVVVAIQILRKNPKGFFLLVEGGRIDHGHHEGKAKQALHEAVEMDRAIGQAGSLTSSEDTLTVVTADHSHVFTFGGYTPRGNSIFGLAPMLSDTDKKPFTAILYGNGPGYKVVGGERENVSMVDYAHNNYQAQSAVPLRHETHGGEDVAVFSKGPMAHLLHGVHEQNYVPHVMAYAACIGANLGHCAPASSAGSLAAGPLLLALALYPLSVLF

T2 sequence (P08684 whole entry): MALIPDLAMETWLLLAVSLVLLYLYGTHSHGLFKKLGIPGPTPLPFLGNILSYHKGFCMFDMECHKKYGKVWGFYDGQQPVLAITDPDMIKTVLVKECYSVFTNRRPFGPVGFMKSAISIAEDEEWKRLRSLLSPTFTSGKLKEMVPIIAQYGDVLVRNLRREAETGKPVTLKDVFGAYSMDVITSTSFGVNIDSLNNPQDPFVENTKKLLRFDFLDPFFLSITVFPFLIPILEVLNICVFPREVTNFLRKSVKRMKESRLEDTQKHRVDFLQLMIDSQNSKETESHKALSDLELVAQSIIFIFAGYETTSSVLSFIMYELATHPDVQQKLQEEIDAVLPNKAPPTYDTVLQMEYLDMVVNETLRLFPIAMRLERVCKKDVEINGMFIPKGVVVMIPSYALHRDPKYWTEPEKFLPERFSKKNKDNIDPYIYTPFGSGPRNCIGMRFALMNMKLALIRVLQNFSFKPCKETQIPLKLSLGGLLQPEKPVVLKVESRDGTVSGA
T1 sequence (P11940 whole entry): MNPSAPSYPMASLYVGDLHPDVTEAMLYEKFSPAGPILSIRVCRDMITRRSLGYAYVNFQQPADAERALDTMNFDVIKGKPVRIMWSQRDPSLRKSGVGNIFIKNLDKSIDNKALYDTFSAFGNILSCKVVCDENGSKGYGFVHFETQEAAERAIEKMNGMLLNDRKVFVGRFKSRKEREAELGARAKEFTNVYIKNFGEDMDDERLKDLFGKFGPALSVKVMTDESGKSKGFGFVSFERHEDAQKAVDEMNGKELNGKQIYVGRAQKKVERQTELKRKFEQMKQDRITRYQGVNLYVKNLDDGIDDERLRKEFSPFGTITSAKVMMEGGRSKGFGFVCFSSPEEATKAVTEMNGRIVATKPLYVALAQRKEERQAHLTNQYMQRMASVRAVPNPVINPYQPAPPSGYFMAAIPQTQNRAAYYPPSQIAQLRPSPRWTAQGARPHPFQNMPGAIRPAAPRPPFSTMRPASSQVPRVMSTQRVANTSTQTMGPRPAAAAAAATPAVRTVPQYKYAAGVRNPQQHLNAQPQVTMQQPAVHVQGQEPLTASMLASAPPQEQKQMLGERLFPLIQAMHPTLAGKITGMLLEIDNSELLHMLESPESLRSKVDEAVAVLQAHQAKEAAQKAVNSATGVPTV
T6 sequence (P09923 whole entry): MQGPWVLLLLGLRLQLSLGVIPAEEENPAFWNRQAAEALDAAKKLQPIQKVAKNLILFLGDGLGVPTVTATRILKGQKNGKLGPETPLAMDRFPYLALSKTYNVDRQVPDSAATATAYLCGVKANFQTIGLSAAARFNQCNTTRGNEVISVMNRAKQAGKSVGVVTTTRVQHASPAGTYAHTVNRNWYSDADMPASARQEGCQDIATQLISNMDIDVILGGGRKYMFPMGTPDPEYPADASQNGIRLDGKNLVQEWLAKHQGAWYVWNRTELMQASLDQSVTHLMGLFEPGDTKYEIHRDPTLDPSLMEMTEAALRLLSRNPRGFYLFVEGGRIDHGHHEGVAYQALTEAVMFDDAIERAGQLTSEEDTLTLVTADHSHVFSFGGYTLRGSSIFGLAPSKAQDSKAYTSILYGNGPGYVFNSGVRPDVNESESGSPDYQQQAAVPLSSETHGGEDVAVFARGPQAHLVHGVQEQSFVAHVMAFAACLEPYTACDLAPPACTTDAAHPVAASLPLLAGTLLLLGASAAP
Chain of Cytochrome P450 2D6 (P10635 whole entry): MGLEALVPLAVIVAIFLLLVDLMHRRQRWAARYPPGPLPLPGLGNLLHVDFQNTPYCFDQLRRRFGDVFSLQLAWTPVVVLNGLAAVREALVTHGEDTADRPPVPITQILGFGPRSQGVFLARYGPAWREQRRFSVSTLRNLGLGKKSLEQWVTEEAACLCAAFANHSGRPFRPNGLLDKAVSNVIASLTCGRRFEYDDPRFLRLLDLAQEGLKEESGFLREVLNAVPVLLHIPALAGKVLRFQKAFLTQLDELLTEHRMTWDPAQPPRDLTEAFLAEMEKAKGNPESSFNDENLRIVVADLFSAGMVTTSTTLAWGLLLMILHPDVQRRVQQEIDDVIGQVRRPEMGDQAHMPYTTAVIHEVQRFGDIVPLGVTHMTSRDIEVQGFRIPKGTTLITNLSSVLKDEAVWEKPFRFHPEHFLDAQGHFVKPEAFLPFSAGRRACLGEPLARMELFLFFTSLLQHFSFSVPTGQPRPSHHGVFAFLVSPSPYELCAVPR
Chain of Glucose-6-phosphate 1-dehydrogenase (P11413 whole entry): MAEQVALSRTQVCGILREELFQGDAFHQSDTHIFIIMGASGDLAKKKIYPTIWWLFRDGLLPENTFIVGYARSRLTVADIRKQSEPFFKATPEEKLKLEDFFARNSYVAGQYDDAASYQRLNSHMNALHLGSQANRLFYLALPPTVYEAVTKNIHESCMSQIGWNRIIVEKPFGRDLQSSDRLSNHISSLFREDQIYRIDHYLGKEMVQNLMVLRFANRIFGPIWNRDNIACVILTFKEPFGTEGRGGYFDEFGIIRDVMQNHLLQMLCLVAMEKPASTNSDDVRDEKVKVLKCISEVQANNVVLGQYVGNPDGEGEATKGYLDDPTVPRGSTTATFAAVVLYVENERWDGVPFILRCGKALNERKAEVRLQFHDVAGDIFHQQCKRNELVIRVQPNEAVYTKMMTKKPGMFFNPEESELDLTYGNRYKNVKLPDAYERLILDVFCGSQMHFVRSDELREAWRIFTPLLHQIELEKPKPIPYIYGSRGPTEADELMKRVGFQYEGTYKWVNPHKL
Chain of Voltage-gated inwardly rectifying potassium channel KCNH2 (Q12809 whole entry, the tested form may be a part): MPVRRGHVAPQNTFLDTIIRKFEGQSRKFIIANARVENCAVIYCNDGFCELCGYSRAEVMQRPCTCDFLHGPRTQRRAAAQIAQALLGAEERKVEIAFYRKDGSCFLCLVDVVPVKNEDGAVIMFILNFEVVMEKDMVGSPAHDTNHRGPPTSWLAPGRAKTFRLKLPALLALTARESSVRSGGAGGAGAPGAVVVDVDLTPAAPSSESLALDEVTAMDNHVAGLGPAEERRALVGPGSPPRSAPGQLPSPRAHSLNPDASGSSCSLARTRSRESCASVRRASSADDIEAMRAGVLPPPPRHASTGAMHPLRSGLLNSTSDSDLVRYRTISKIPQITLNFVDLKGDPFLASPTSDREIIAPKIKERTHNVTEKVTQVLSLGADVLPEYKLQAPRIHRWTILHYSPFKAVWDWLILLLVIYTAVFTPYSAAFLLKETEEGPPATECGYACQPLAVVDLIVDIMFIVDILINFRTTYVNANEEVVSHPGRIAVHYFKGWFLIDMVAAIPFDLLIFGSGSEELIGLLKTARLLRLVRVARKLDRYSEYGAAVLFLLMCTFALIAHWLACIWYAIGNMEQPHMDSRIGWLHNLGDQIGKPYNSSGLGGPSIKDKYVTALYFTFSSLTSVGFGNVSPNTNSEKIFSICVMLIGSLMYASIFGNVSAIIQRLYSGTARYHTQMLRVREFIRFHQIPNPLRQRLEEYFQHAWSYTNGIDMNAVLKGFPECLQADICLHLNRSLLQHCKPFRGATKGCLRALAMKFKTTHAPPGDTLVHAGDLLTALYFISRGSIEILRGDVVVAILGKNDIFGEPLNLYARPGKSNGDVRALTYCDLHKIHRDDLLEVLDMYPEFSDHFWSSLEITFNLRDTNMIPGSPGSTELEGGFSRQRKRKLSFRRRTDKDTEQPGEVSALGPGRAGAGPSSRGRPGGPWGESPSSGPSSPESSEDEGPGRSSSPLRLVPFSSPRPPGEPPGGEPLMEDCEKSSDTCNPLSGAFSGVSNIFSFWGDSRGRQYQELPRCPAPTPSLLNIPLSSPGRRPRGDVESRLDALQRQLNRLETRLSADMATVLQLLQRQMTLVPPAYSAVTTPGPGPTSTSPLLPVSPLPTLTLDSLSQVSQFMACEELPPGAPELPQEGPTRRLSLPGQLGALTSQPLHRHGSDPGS
Chain of Beta-galactosidase (Q8VNN2 whole entry): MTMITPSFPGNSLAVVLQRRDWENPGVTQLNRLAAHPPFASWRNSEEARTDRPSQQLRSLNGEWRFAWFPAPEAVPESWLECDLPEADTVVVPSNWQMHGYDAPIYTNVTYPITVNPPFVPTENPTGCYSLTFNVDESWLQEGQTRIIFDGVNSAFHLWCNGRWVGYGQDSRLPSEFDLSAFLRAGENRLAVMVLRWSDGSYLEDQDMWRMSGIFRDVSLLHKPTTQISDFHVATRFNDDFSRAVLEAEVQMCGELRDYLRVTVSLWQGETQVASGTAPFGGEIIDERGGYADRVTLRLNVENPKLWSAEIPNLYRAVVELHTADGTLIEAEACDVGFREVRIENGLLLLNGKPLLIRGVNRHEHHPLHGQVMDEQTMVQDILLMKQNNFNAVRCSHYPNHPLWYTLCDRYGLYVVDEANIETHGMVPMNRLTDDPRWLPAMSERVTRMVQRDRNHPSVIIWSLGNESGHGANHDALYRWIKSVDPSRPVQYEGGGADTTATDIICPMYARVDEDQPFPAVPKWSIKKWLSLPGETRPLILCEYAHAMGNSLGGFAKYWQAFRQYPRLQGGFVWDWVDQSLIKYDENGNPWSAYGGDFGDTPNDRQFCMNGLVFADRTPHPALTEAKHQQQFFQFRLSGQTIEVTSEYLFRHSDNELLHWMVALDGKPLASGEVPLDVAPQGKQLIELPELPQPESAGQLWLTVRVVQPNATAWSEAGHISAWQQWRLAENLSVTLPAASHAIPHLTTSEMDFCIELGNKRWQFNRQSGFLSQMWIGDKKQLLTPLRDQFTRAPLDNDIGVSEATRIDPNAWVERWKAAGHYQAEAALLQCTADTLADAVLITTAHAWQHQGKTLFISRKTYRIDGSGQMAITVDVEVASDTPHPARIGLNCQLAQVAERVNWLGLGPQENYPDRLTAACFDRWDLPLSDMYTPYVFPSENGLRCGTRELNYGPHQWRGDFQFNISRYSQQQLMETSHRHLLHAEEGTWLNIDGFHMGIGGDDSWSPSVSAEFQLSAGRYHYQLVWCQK

AC50 [13]: 31.6 µM (inconclusive)
SMILES: CC(=O)N[C@@H](Cc1c[nH]c2ccccc12)C(=O)OCc1cc(C(F)(F)F)cc(C(F)(F)F)c1 [L-732138]
AC50 [14]: 12.6 µM (inconclusive)

IC50 [15]: 62.4 µM (inactive)
IC50 [16]: 7.53 µM (active)
SMILES: O=C(O)CCSc1cc(NS(=O)(=O)c2ccccc2)c2ccccc2c1O

EC50 [17]: > 100 µM (inactive)
EC50 [18]: 8.19 µM (active)
EC50 [19]: 9.87 µM (active)
EC50 [20]: 10 µM (active)
SMILES: O=C(CCCCC(=O)NNC(=O)COc1ccccc1)NNC(=O)COc1ccccc1

Further lines, the compound ahead of its results:

SMILES: Cc1cc(O)c(-c2cc(O)c(C)cc2O)cc1O
EC50 [1]: 2.37 µM (active)
EC50 [2]: 4.13 µM (active)
IC50 [3]: 11.1 µM (active)
IC50 [4]: > 66.6 µM (inactive)
IC50 [5]: 39.8 µM (active)
IC50 [6]: > 66 µM (inactive)
IC50 [7]: > 66 µM (inactive)
AC50 [8]: 1.58 µM (inconclusive)
AC50 [9]: inconclusive

SMILES: CCOc1ccc(CSC(CC(=O)O)C(=O)O)cc1 (stereo not given)
AC50 [10]: 14.1 µM (inconclusive)
AC50 [11]: 15.8 µM (inconclusive)
AC50 [12]: inconclusive
